# Laboratory results reported in patent publication US4766222A, “Novel class of acyl-derivatives of carnitine process for preparing same and therapeutic use thereof” (Sigma-Tau Industrie Farmacuetiche Riunite S.p.A., priority 1980, dated 1988).
# Like-named read-outs stand apart in the source and are kept apart here.
# Tests used:
# [1] = tested on: arrythmia induced by Aconitine in mice; test: animal or person; type: in vivo; details: for change in vivo at 100 mg/kg / change in vivo at 25 mg/kg / change in vivo at 40 mg/kg / change in vivo at 8.9 mg/kg / change in vivo at 50 mg/kg / change in vivo at 35 mg/kg / change in vivo at 20 mg/kg: Mus musculus, iv; for % increase of the latency time to onset of initial cardiac arrythmia / % increase of the latency time to onset of tachycardia: with respect to the control group
# Method: The antiarrhythmic effect of the compounds was also investigated in mice according to the P. W. Nwangwu, T. Holcslow procedure (P. W. Nwangwu, T. L. Holcslow; Arch. Int. Pharmacodyn. 229, 219 (1977)). Using aconitine (5γ/ml) as arrhythmogenic agent, the changes in the cardiac rhythm of the animals were recorded and the onset time of initial arrhythmia and/or of ventricular tachycardia were used as end point.
# in vivo = type: in vivo; details: mouse, in vivo, ip; i.p. in mice; N = 5, K = 4; read-out: LD50 and fiducial limits
# Source text: (§1) The acute toxicity of the compounds of general formula (I) was investigated in mice using the Weil method (Weil C. S., Biometr. J. 8, 249, 1952).
# [2] = tested on: plasma cholesterol (Chol.) triglycerides (TG) and α-, β- and pre-β-lipoproteins; test: plasma cholesterol, triglycerides and lipoproteins in rats treated with olive oil; type: in vivo; details: olive oil 15 ml kg^-1, N = 6; for % Lipoproteins β: control 16.12 ± 1.48; for % Lipoproteins α: control 23.28 ± 2.19; for % Lipoproteins pre-β: control 56.45 ± 2.36; for Chol. (plasma cholesterol): control 96.18 ± 4.16; for TG (plasma triglycerides): control 215.36 ± 20.18
# mice = test: in vivo; type: in vivo; details: i.p. in mice; N = 5, K = 4
# Source text: as §1
# [3] = tested on: rabbit's heart "in vitro"; test: cardiokinetic effect: contractile force of isolated rabbit heart (Langendorff) after anoxia; details: 10^-6 M; 10 minutes from the interruption of the anoxic period; control 26.93 ± 5.31
# Method: The cardiokinetic effect was investigated on rabbit hearts isolated by the Langendorff method. […] The isometric contractions, electro-cardiogram and coronary flow were recorded using a "Battaglia-Rangoni" polygraph. By removing the oxygen from the perfusion fluid, metabolic damage was induced in the cardiac muscle, up to an 80% reduction in the cardiac contractile force. Under these conditions of prolonged anoxia the aerobic glycolysis of the myocardium is slowed down with attendant formation of acid catabolites due to both the accumulation of pyruvic acid and its conversion to lactic acid which cannot be utilized because of the depression of pyridine enzymes, such as LDH (lactodehydrogenase). This has repercussions on the anaerobic glycolysis affecting an ever increasing number of enzymes, accompanied by a progressive and increasingly critical exhaustion of the myocardium. Thus a whole series of cardiac muscle fatigue levels occurs which can be observed by the behaviour of the examined parameters, namely the contractile force, coronary flow, heart rate and cardiac rhythm. As soon as the contractile force was reduced by 80%, the perfusion fluid was once again oxygenated either without adding other compounds (controls) or with the addition of the compounds under examination.
# [4] = read-out: % increase of the latency time to onset of initial cardiac arrythmia
# [5] = read-out: % increase of the latency time to onset of tachycardia
molecule,measurement,setting,value
C[N+](C)(C)CC(CC(=O)O)OC(=O)CC1C=CCC1 (centres unmarked) [2-cyclopenten ACAR],change in vivo at 100 mg/kg,[1]; [4],40%
same,change in vivo at 100 mg/kg,[1]; [5],20%
same,LD50,in vivo,1200 mg/kg
CC(C)(O)C(=O)OC(CC(=O)O)C[N+](C)(C)C (centres unmarked) [2-hydroxy isobutyryl CAR],change in vivo at 25 mg/kg,[1]; [4],55%
same,change in vivo at 25 mg/kg,[1]; [5],48%
same,LD50,in vivo,1470 mg/kg
same,% Lipoproteins β,[2]; 450 mg kg^-1 oral,10.36 ± 1.12%
same,% Lipoproteins α,[2]; 450 mg kg^-1 oral,27.19 ± 3.48%
same,% Lipoproteins pre-β,[2]; 450 mg kg^-1 oral,48.36 ± 1.15%
same,Chol. (plasma cholesterol),[2]; 450 mg kg^-1 oral,75.03 ± 4.12 mg/100 ml
same,TG (plasma triglycerides),[2]; 450 mg kg^-1 oral,100.29 ± 12.48 mg/100 ml
CC(C)C(O)C(=O)OC(CC(=O)O)C[N+](C)(C)C (centres unmarked) [2-hydroxy isovaleryl CAR],change in vivo at 40 mg/kg,[1]; [4],60%
same,change in vivo at 40 mg/kg,[1]; [5],30%
same,LD50,in vivo,1580 mg/kg
"COC(=O)CCC(=O)OC(CC(=O)O)C[N+](C)(C)C (centres unmarked) [3-carbomethoxypropionyl CAR, 3-carbomethoxypropionyl carnitine chloride]",change in vivo at 25 mg/kg,[1]; [4],65%
same,change in vivo at 25 mg/kg,[1]; [5],39%
same,LD50,in vivo,985 mg/kg
same,% Lipoproteins β,[2]; 350 mg kg^-1 oral,11.18 ± 1.15%
same,% Lipoproteins α,[2]; 350 mg kg^-1 oral,34.17 ± 3.23%
same,% Lipoproteins pre-β,[2]; 350 mg kg^-1 oral,50.03%
same,Chol. (plasma cholesterol),[2]; 350 mg kg^-1 oral,69.25 ± 3.26 mg/100 ml
same,TG (plasma triglycerides),[2]; 350 mg kg^-1 oral,88.15 ± 15.36 mg/100 ml
"C=C[C@H]1C[N@@]2CC[C@H]1C[C@@H]2[C@@H](O)c1ccnc2ccc(OC)cc12 [Quinidine, reference compound]",change in vivo at 8.9 mg/kg,[1]; [4],50%
same,change in vivo at 8.9 mg/kg,[1]; [5],41.7%
C=CC(=O)OC(CC(=O)O)C[N+](C)(C)C (centres unmarked) [acrilyl-CAR],change in vivo at 50 mg/kg,[1]; [4],45%
same,change in vivo at 50 mg/kg,[1]; [5],39%
same,LD50,in vivo,1380 mg/kg
"C[N+](C)(C)CC(CC(=O)O)OC(=O)CC1CCCCC1 (centres unmarked) [cyclohexyl ACAR, cyclohexyl acetyl carnitine chloride]",change in vivo at 35 mg/kg,[1]; [4],63%
same,change in vivo at 35 mg/kg,[1]; [5],44%
same,LD50,in vivo,850 mg/kg
same,% Lipoproteins β,[2]; 400 mg kg^-1 oral,12.15 ± 1.09%
same,% Lipoproteins α,[2]; 400 mg kg^-1 oral,36.48 ± 2.36%
same,% Lipoproteins pre-β,[2]; 400 mg kg^-1 oral,49.12%
same,Chol. (plasma cholesterol),[2]; 400 mg kg^-1 oral,85.15 ± 4.26 mg/100 ml
same,TG (plasma triglycerides),[2]; 400 mg kg^-1 oral,100.12 ± 15.16 mg/100 ml
"CCOCC(=O)OC(CC(=O)O)C[N+](C)(C)C (centres unmarked) [ethoxy ACAR, ethoxy acetyl carnitine chloride]",change in vivo at 20 mg/kg,[1]; [4],60%
same,change in vivo at 20 mg/kg,[1]; [5],55%
same,LD50,in vivo,2120 mg/kg
same,% Lipoproteins β,[2]; 250 mg kg^-1 oral,10.28 ± 1.52%
same,% Lipoproteins α,[2]; 250 mg kg^-1 oral,37.15 ± 2.17%
same,% Lipoproteins pre-β,[2]; 250 mg kg^-1 oral,42.15 ± 2.27%
same,Chol. (plasma cholesterol),[2]; 250 mg kg^-1 oral,70.26 ± 6.48 mg/100 ml
same,TG (plasma triglycerides),[2]; 250 mg kg^-1 oral,78.25 ± 10.12 mg/100 ml
CCOCC(=O)O[C@H](CC(=O)O)C[N+](C)(C)C.[Cl-] [ethoxyacetyl CAR],% increase of the latency time to onset of initial cardiac arrythmia,[1]; 100 mg kg^-1 i.v.,40%
same,% increase of the latency time to onset of tachycardia,[1]; 100 mg kg^-1 i.v.,20%
same,LD50 and fiducial limits,mice,760 (545-975) mg kg^-1
same,"contractile force, mean ± ESM",[3],62.25 ± 3.24%
CC(C=O)C(=O)OC(CC(=O)[O-])C[N+](C)(C)C (centres unmarked) [formyl propionyl CAR],% increase of the latency time to onset of initial cardiac arrythmia,[1]; 60 mg kg^-1 i.v.,55%
same,% increase of the latency time to onset of tachycardia,[1]; 60 mg kg^-1 i.v.,34%
same,LD50 and fiducial limits,mice,1010 (850-1170) mg kg^-1
same,"contractile force, mean ± ESM",[3],74.26 ± 4.15%
"COCC(=O)OC(CC(=O)O)C[N+](C)(C)C (centres unmarked) [methoxy ACAR, methoxy acetyl carnitine chloride]",change in vivo at 25 mg/kg,[1]; [4],65%
same,change in vivo at 25 mg/kg,[1]; [5],50%
same,LD50,in vivo,1980 mg/kg
CC(C)(C)CC(=O)OC(CC(=O)O)C[N+](C)(C)C (centres unmarked) [tert-butyl ACAR],change in vivo at 25 mg/kg,[1]; [4],59%
same,change in vivo at 25 mg/kg,[1]; [5],36%
same,LD50,in vivo,1120 mg/kg
same,% Lipoproteins β,[2]; 350 mg kg^-1 oral,13.27 ± 1.12%
same,% Lipoproteins α,[2]; 350 mg kg^-1 oral,31.12 ± 2.17%
same,% Lipoproteins pre-β,[2]; 350 mg kg^-1 oral,51.36%
same,Chol. (plasma cholesterol),[2]; 350 mg kg^-1 oral,70.12 ± 3.24 mg/100 ml
same,TG (plasma triglycerides),[2]; 350 mg kg^-1 oral,99.36 ± 10.12 mg/100 ml
vinyl acetyl carnitine chloride [vinyl CAR],% increase of the latency time to onset of initial cardiac arrythmia,[1]; 38 mg kg^-1 i.v.,53%
same,% increase of the latency time to onset of tachycardia,[1]; 38 mg kg^-1 i.v.,41%
same,LD50 and fiducial limits,mice,1200 (800-1600) mg kg^-1
same,"contractile force, mean ± ESM",[3],48.25 ± 5.12%
same,% Lipoproteins β,[2]; 300 mg kg^-1 oral,14.13 ± 1.63%
same,% Lipoproteins α,[2]; 300 mg kg^-1 oral,29.46 ± 3.15%
same,% Lipoproteins pre-β,[2]; 300 mg kg^-1 oral,48.89 ± 2.96%
same,Chol. (plasma cholesterol),[2]; 300 mg kg^-1 oral,78.15 ± 6.16 mg/100 ml
same,TG (plasma triglycerides),[2]; 300 mg kg^-1 oral,112.15 ± 15.16 mg/100 ml
